Measured values as given in patent US11655247B2, “Nanoluc suicide substrates” (PROMEGA CORPORATION, priority 2018, dated 2023).
“Also recorded” adds a separate entry of the source.

Columns and labels:
[1] = test system: NanoLuc-HaloTag fusion protein; experiment: Direct and two-step labeling with TCO-tetrazine or DBCO-azide pair, fluorescence imaging on SDS/PAGE gel; assay type: biochemical; conditions: for Two-step labeling with tetrazine-FAM (JRW-1577): second step tetrazine-FAM (JRW-1577)
Experimental: Similar to the previous example, NanoLuc-HaloTag protein was incubated with compounds to either directly label or label via the two-step process with FAM. Compounds were incubated with the NanoLuc-HaloTag fusion protein and analyzed by florescence imaging on SDS/PAGE gel.

NanoLuc-HaloTag = experiment: Direct and two-step labeling with azide-DBCO pair, fluorescence imaging on SDS/PAGE gel; assay type: biochemical; conditions: 50 uM compound 1 hour, then 100 uM DBCO-FAM 4 hours
Experimental: In Example 26, a dye-appended suicide substrate is shown by fluorescence imaging to label NanoLuc. In this example, a suicide substrate with an appended azide is shown to label a NanoLuc-HaloTag protein in a two-step procedure in which the second step is copper-free click chemistry with a DBCO appended FAM dye. […] Structures of the compounds used in this example are illustrated in FIG. 10A.
0.5 uM NanoLuc-HaloTag in 100 mM Tris pH 8.0 was incubated for 1 hour with 50 uM of: Tube 1—JRW-1505; Tube 2—FAM-HaloTag ligand; Tube 3—JRW-0926; Tube 4—JRW-0975; Tube 5—JRW-1022; and Tube 6—SE-azide. In the second step, 100 uM DBCO-FAM was incubated for 4 hours in Tubes 1, 4, 5, and 6, followed by SDS/PAGE gel for all samples (FIG. 10B). The fluorescence (473ex) (Cy2 filter set) of bands corresponding to the size of NanoLuc-HaloTag was read and quantified.
In a second experiment, 1.5 uM NanoLuc-HaloTag in 100 mM Tris (or DPBS buffer) pH 8.0 was incubated with 50 uM of JRW-0975, FAM-HaloTag ligand, JRW-0926, JRW-1022, or SE-azide for 1 hour. In the second step, 100 uM DBCO-FAM was incubated for 4 hours with tubes 3, 4, and 5, followed by SDS/PAGE gel (FIG. 11A). The fluorescence (473ex) (Cy2 filter set) of bands corresponding to the size of NanoLuc-HaloTag was read and quantified (FIG. 11B).

[2] = Stability in solution noted at preparation; assay type: physicochemical; conditions: note at preparation
NanoLuc [3] = target: T1, NanoLuc (Oplophorus gracilirostris, UniProt Q9GV45, A31E/A60N/A81I/F95D/I117V/K70R/L54V/L99Q/M102K/N193R/P142E/Q151K/Q38R/Q45L/V71I/Y165I); assay type: biochemical; conditions: relative value, Furimazine set to 1; NanoLuc; read three minutes after substrate addition
T1 sequence (Q9GV45 28-196 with tags or gaps with the stated changes limits assumed): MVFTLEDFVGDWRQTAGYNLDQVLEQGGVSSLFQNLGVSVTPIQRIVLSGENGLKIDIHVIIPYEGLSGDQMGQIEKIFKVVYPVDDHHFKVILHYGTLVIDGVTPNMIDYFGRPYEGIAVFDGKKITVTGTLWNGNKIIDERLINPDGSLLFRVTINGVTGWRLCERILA
Experimental: Luminescence Assay Procedure:
Each compound to be screened was dissolved in DMSO (5 mM) and then further diluted to 100 μM in NANO-GLO® Luciferase Assay Buffer. Km values were determined by first serially diluting substrates two-fold into NANO-GLO® Luciferase Assay Buffer. Substrate dilutions were then combined with an equal volume of NanoLuc diluted to 4 ng/ml in TBS+0.01% BSA. Autoluminescence was measured by combining the 100 uM dilution of substrate with TBS+0.01% BSA. Luminescence and autoluminescence values were measured in a GloMax®-Multi+ luminometer three minutes after substrate addition. Signal decay was measured by combining equal volumes of 100 uM of substrate with 4 ng/ml NanoLuc in TBS+0.01% BSA and then samples were read in five minute intervals for two hours using a GloMax®-Multi+. Km was calculated using GraphPad Prism using nonlinear Michaelis-Menten regression. Signal half-life values were calculated using GraphPad Prism Non-linear decay, plateau set to zero.

NanoLuc [4] = target: T1, NanoLuc; experiment: Inhibition of NanoLuc luciferase: blocking of furimazine luminescence after pre-incubation; assay type: biochemical; conditions: for Inhibition of NanoLuc (bioluminescence upon later furimazine addition): compound incubated with NanoLuc first, then furimazine (10 μM) added
Experimental: Compounds were also tested for their ability to block furimazine luminescence with NanoLuc. Typically, NanoLuc (0.4 μg/mL) in DMEM was incubated with either furimazine or test compound (50 μM) while monitoring RLU's with a GloMax® luminometer for 10-60 minutes. After the set time, the plate was removed from the instrument, and a dose of furimazine (10 μM) was added to the well containing the test compound and monitored for 10-60 minutes.
FIGS. 3A-B depicts inhibition of Nluc luciferase by furimazine-h. Furimazine-h (10 μM) was incubated with NanoLuc in NanoGlo or DMEM for 15 or 10 minutes, respectively. This bright signal rapidly degrades to a fraction of the signal observed in the furimazine positive control wells.
FIG. 9 depicts inhibition of Nluc luciferase by furimazine-h. This is a reverse addition experiment as compared to FIG. 3. Furimazine (10 μM) was incubated with NanoLuc in NanoGlo® buffer for 15 minutes.
JRW-0855 and JRW-1088 were incubated with NanoLuc in DMEM for 12 minutes. […] After the incubation period, 10 μM furimazine was added to the well.

[5] = test system: NanoLuc-HaloTag (Nluc-HT); experiment: Fluorescent labeling of NanoLuc-HaloTag, SDS/PAGE fluorescence imaging; assay type: biochemical; conditions: 0.5 μM protein, 50 μM label, 30 minutes, room temperature
Experimental: The efficiency of the NanoLuc suicide substrates was compared with a chloroalkane-FAM substrate with a fusion protein in which the HaloTag protein (SEQ ID NO: 5) is fused to either glutathione transferase (GST) or NanoLuc.
Either FAM chloroalkane or coelenterazine FAM substrate was incubated with glutathione transferase-HaloTag (GST-HT) or NanoLuc-HaloTag (Nluc-HT) fusions. The reactions were with 0.5 μM protein (GST-HT or Nluc-HT) and 50 μM of label (100× excess of label) and incubated for 30 minutes at room temperature. The sample titrations of each sample were then loaded to the SDS/PAGE gel. The fluorescence (473ex) (Cy2 filter set) was read and quantified. […] Results are quantified in FIG. 8B.

[6] = target: NanoBiT™ Binary luciferase (Oplophorus gracilirostris, UniProt Q9GV45, A31E/A60N/A81I/F95D/I117V/K70R/L54V/L99Q/M102K/P142E/Q151K/Q38R/Q45L/V71I/Y165I); experiment: Inhibition of NanoBiT Binary luciferase (HiBiT + LgBiT); assay type: biochemical
Sequence of NanoBiT™ Binary luciferase (Q9GV45 other isoform, or with tags, fused parts or gaps with the stated changes): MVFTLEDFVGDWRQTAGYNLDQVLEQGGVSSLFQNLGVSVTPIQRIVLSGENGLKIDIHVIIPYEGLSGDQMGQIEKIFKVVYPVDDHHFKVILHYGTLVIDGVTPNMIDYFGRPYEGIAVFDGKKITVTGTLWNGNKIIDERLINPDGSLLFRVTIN
Experimental: Compounds were also tested for their ability to inhibit the NanoBiT™ Binary luciferase. HiBiT (SEQ ID NO: 3) and LgBiT (SEQ ID NO: 4) (two subunits of the NanoBiT™ luciferase) were incubated with furimazine or furimazine-h for 15 minutes. Following the incubation period, 10 μM furimazine was added. […] This signal rapidly degrades to a fraction of the signal observed in the furimazine positive control wells. Addition of furimazine to the furimazine positive control wells results in an increase in bioluminescence.

Row | SMILES | Stability in solution [2] | RLU (at 100 μM) (NanoLuc [3]) | Inhibition of NanoLuc (bioluminescence upon later furimazine addition) (NanoLuc [4]) | further results
1 | O=C(NCCCCCCCCOc1ccc(Cc2nc3c(Cc4ccccc4)[nH]c(-c4ccc(O)cc4)cn-3c2=O)cc1F)OC1CC/C=C/CCC1 (centres unmarked) [JRW-1566, (E)-cyclooct-4-en-1-yl (8-(4-((8-benzyl-6-(4-hydroxyphenyl)-3-oxo-3,7-dihydroimidazo[1,2-a]pyrazin-2-yl)methyl)-2-fluorophenoxy)octyl)carbamate] | – | – | – | Two-step labeling with tetrazine-FAM (JRW-1577) [1]: two-step labeling of NanoLuc
2 | [N-]=[N+]=NCCOCCOCCC(=O)NCCOCCOCCCCCCCl [JRW-1505, 3-(2-(2-azidoethoxy)ethoxy)-N-(2-(2-((6-chlorohexyl)oxy)ethoxy)ethyl)propanamide] | – | – | – | Two-step labeling with DBCO-FAM (NanoLuc-HaloTag): two-step labeling occurs
3 | CN(C)c1ccc2c(-c3cc(C(=O)NCCOCCOCCC(=O)NCCCCCCCCOc4ccc(Cc5cc6c(Cc7ccccc7)[nH]c(-c7ccc(O)cc7)cn-6c5=O)cc4F)ccc3C(=O)[O-])c3ccc(N(C)C)cc3[o+]c2c1 [JRW-0927, 4-((2-(2-(3-((8-(4-((1-benzyl-3-(4-hydroxyphenyl)-6-oxo-2,6-dihydropyrrolo[1,2-a]pyrazin-7-yl)methyl)-2-fluorophenoxy)octyl)amino)-3-oxopropoxy)ethoxy)ethyl)carbamoyl)-2-(3,6-bis(dimethylamino)xanthylium-9-yl)benzoate] | instability in solution | 0.0000024 | did not inhibit NanoLuc | –
4 | [N-]=[N+]=NCCCCCCCCOc1ccc(Cc2nc3c(Cc4ccccc4)[nH]c(-c4ccc(O)cc4)cn-3c2=O)cc1F [JRW-1022, 2-(4-((8-azidooctyl)oxy)-3-fluorobenzyl)-8-benzyl-6-(4-hydroxyphenyl)imidazo[1,2-a]pyrazin-3(7H)-one] | – | – | partial Nluc inhibitors | Two-step labeling with DBCO-FAM ([1]; second step DBCO-FAM): two-step labeling occurs
5 | O=C(NCCCCCCCCOc1ccc(Cc2nc3c(Cc4ccccc4)[nH]c(-c4ccc(O)cc4)cn-3c2=O)cc1F)c1ccc(C(=O)[O-])c(-c2c3ccc(O)cc3[o+]c3cc(O)ccc23)c1 [JRW-0906, 4-((8-(4-((8-benzyl-6-(4-hydroxyphenyl)-3-oxo-3,7-dihydroimidazo[1,2-a]pyrazin-2-yl)methyl)-2-fluorophenoxy)octyl)carbamoyl)-2-(3,6-dihydroxyxanthylium-9-yl)benzoate] | – | 0.036 | exemplary suicide substrates of NanoLuc | Labeling efficiency relative to the chloroalkane-HT system [5]: ~50%
6 | CN(C)c1ccc2c(-c3cc(C(=O)NCCCCCCOc4ccc(Cc5nc6c(Cc7ccccc7)[nH]c(-c7ccc(O)cc7)cn-6c5=O)cc4F)ccc3C(=O)[O-])c3ccc(N(C)C)cc3[o+]c2c1 [JRW-0857, 4-((6-(4-((8-benzyl-6-(4-hydroxyphenyl)-3-oxo-3,7-dihydroimidazo[1,2-a]pyrazin-2-yl)methyl)-2-fluorophenoxy)hexyl)carbamoyl)-2-(3,6-bis(dimethylamino)xanthylium-9-yl)benzoate] | instability in solution | 0.00000029 | did not inhibit NanoLuc | –
7 | O=C(CCC(=O)N1Cc2ccccc2C#Cc2ccccc21)NCCCCCCCCOc1ccc(Cc2nc3c(Cc4ccccc4)[nH]c(-c4ccc(O)cc4)cn-3c2=O)cc1F [JRW-1549, N^1-(8-(4-((8-benzyl-6-(4-hydroxyphenyl)-3-oxo-3,7-dihydroimidazo[1,2-a]pyrazin-2-yl)methyl)-2-fluorophenoxy)octyl)-N^4-DBCO-succinamide] | – | – | – | Two-step labeling with Azide-FAM ([1]; second step Azide-FAM): little to no labeling
8 | CC(=O)Oc1ccc2c(c1)Oc1cc(OC(C)=O)ccc1C21OC(=O)c2ccc(C(=O)NCCCCCCCCOc3ccc(Cc4nc5c(Cc6ccccc6)[nH]c(-c6ccc(O)cc6)cn-5c4=O)cc3F)cc21 [JRW-0972, 6-((8-(4-((8-benzyl-6-(4-hydroxyphenyl)-3-oxo-3,7-dihydroimidazo[1,2-a]pyrazin-2-yl)methyl)-2-fluorophenoxy)octyl)carbamoyl)-3-oxo-3H-spiro[isobenzofuran-1,9′-xanthene]-3′,6′-diyl diacetate] | instability in solution | 0.00005 | did not inhibit NanoLuc | –
9 | O=c1c(Cc2ccco2)nc2c(Cc3ccccc3)[nH]c(-c3ccc(O)cc3)cn1-2 [Furimazine-h, 8-benzyl-2-(furan-2-ylmethyl)-6-(4-hydroxyphenyl)imidazo[1,2-a]pyrazin-3(7H)-one, reference compound] | – | 1 | NanoLuc is inhibited; also recorded: exemplary suicide substrates of NanoLuc | Inhibition of NanoBiT luciferase ([6]; 15 minutes incubation, then 10 μM furimazine added): effectively inhibited; Initial luminescent signal compared with furimazine ([6]; HiBiT and LgBiT incubated with compound): comparable to that of furimazine; Inhibition of NanoLuc, reverse addition (NanoLuc [4]; furimazine (10 μM) with NanoLuc in NanoGlo buffer 15 minutes, then compound added): rapid signal decay
10 | O=C(NCCOCCOCCCCCCCl)OC1CC/C=C/CCC1 (centres unmarked) [JRW-1567, (E)-cyclooct-4-en-1-yl (2-(2-((6-chlorohexyl)oxy)ethoxy)ethyl)carbamate] | – | – | – | Two-step labeling with tetrazine-FAM (JRW-1577) [1]: two-step labeling occurs
11 | CN(C)c1ccc2c(-c3cc(C(=O)NCCCCCCCCOc4ccc(Cc5nc6c(Cc7ccccc7)[nH]c(-c7ccc(O)cc7)cn-6c5=O)cc4F)ccc3C(=O)[O-])c3ccc(N(C)C)cc3[o+]c2c1 [JRW-0912, 4-((8-(4-((8-benzyl-6-(4-hydroxyphenyl)-3-oxo-3,7-dihydroimidazo[1,2-a]pyrazin-2-yl)methyl)-2-fluorophenoxy)octyl)carbamoyl)-2-(3,6-bis(dimethylamino)xanthylium-9-yl)benzoate] | instability in solution | 0.000061 | did not inhibit NanoLuc | –
